In patent US20100190747A1, “Fused ring compound and use thereof” (priority 2009, published 2010):

Target: T1, delta-5-desaturase (Rattus norvegicus, UniProt Q920R3)
T1 construct: the microsomal fraction of a rat river (10 μl), which had been diluted to 3 mg/ml; from tissue; host or cells: rat liver microsomal fraction
Test: Inhibitory activity on delta-5-desaturase (rat liver microsomal fraction, 14C-eicosatrienoic acid, TLC)
Type: biochemical
Conditions: test compound at 10 μM, room temperature, 120 minutes
Experimental: An inhibitory activity of a test compound on delta-5-desaturase was measured according to the method described herein below. To a DMSO solution of the test compound which had been previously prepared, secondary dilution was carried out by using a buffer (300 mM NaH2PO4 [pH 7.4], 450 mM KCl, 30 mM NaF, 9 mM MgCl2, 4.5 mM glutathione [reduced form], 0.3% BSA [fatty acid free, SIGMA]). This diluent compound (10 μl) was added in a 96-well deep well block made of polypropylene, and then the microsomal fraction of a rat river (10 μl), which had been diluted to 3 mg/ml by using a microsome buffer (10 mM Tris-HCl [pH 7.4], 1 mM EDTA, and 250 mM sucrose), was added thereto. The enzyme reaction was initiated by adding 10 μl of 9 mM NADH, 9 mM ATP, 0.9 mM CoA and 10 μCi/ml (8E,11E,14E)-(1-^14C)eicosa-8,11,14-trienoic acid (PerkinElmer Inc.). The enzyme reaction was carried out at room temperature for 120 minutes, and then terminated by addition of 2.5 M NaOH (10 μl). Upon the completion of the reaction, the plate was covered with plate seal and incubated overnight in a dry heater of which temperature was set at 55° C. for saponification. Based on Bligh & Dyer method which had been described in a known document, Canadian Journal of Biochemistry and Physiology (Can. J. Biochem. Physiol.), Vol. 37, page 911, 1959), the solvent extraction of fatty acid was carried out by adding 200 μl of formic acid:methanol:chloroform (1:6:3), keeping the mixture as a single layer for a while, stirring the mixture to a sufficient level, and adding 120 μl of pure water to separate the mixture into two layers. 10 μl of the bottom chloroform layer was spotted on a reverse phase TLC plate (RP-18, 1154230001, Merck Japan, Ltd.) and then developed with acetonitrile:pure water:acetic acid (95:4.5:0.5). The TLC plate obtained after drying was transferred to an Imaging Plate (Fuji Photo Film Co., Ltd.) for more than 5 hours. Detection was carried out by using BAS-5000 (Fuji Photo Film Co., Ltd.). Numerization of thus-obtained image was carried out by using Multi Gauge Ver 2.3 (Fuji Photo Film Co., Ltd.) and an inhibitory ratio (%) of the test compound at 10 μM on delta-5-desaturase was obtained.

T1 sequence (Q920R3 whole entry): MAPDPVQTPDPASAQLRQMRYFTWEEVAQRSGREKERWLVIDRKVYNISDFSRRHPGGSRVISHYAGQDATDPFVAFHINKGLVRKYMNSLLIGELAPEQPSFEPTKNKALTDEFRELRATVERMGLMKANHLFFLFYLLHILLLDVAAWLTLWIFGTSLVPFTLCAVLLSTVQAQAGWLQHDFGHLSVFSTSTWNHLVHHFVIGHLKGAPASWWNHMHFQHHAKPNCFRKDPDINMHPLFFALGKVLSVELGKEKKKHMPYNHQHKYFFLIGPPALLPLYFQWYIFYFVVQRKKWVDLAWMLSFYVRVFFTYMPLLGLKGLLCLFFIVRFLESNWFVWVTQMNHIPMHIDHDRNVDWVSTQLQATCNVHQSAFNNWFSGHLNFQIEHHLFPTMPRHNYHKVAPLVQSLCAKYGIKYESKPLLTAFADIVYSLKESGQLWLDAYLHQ

| inhibition at 10 µM | Compound |
| --- | --- |
| 100% | O=C(CCCSc1nc2cc[nH]c2c(=O)n1-c1ccc(OCC(F)(F)F)cc1)N1CCS(=O)(=O)CC1 [Example 135, 2-{[4-(1,1-Dioxidothiomorpholin-4-yl)-4-oxobutyl]sulfanyl}-[4-(2,2,2-trifluoroethoxy)phenyl]-3,5-dihydro-4H-pyrrolo[3,2-d]pyrimidin-4-one] |
| 99% | O=C(CCCSc1nc2cc[nH]c2c(=O)n1-c1ccc(OCC(F)(F)F)cc1)N1CCSCC1 [Example 136, 2-[(4-Oxo-4-thiomorpholin-4-ylbutyl)sulfanyl]-3-[4-(2,2,2-trifluoroethoxy)phenyl]-3,5-dihydro-4H-pyrrolo[3,2-d]pyrimidin-4-one] |
| 99% | CC(C)OCCCSc1nc2cc[nH]c2c(=O)n1-c1ccc(OCC(F)(F)F)cc1 [Example 137, 2-{[3-(1-Methylethoxy)propyl]sulfanyl}-3-[4-(2,2,2-trifluoroethoxy)phenyl]-3,5-dihydro-4H-pyrrolo[3,2-d]pyrimidin-4-one] |
| 101% | CCOCCCSc1nc2cc[nH]c2c(=O)n1-c1ccc(OCC2CC2)cc1 [Example 139, 3-[4-(Cyclopropylmethoxy)phenyl]-2-[(3-ethoxypropyl)sulfanyl]-3,5-dihydro-4H-pyrrolo[3,2-d]pyrimidin-4-one] |
| 100% | COCCOCCCSc1nc2cc[nH]c2c(=O)n1-c1ccc(OCC2CC2)cc1 [Example 141, 3-[4-(Cyclopropylmethoxy)phenyl]-2-{[3-(2-methoxyethoxy)propyl]sulfanyl}-3,5-dihydro-4H-pyrrolo[3,2-d]pyrimidin-4-one] |
| 98% | CCOCCOCCSc1nc2cc[nH]c2c(=O)n1-c1ccc(OCC2CC2)cc1 [Example 142, 3-[4-(Cyclopropylmethoxy)phenyl]-2-{[2-(2-ethoxyethoxy)ethyl]sulfanyl}-3,5-dihydro-4H-pyrrolo[3,2-d]pyrimidin-4-one] |
| 101% | CCOCCSc1nc2cc[nH]c2c(=O)n1-c1ccc(OCC2CC2)cc1 [Example 143, 3-[4-(Cyclopropylmethoxy)phenyl]-2-[(2-ethoxyethyl)sulfanyl]-3,5-dihydro-4H-pyrrolo[3,2-d]pyrimidin-4-one] |
| 101% | O=c1c2[nH]ccc2nc(SCCO)n1-c1ccc(OCC2CC2)cc1 [Example 144, 3-[4-(Cyclopropylmethoxy)phenyl]-2-[(2-hydroxyethyl)sulfanyl]-3,5-dihydro-4H-pyrrolo[3,2-d]pyrimidin-4-one] |
| 98% | O=c1c2[nH]ccc2nc(SCCOC2CCOCC2)n1-c1ccc(OCC2CC2)cc1 [Example 147, 3-[4-(Cyclopropylmethoxy)phenyl]-2-{[2-(tetrahydro-2H-pyran-4-yloxy)ethyl]sulfanyl}-3,5-dihydro-4H-pyrrolo[3,2-d]pyrimidin-4-one] |
| 98% | CCSc1nc2cc[nH]c2c(=O)n1-c1ccc(OCC2CC2)cc1 [Example 153, 3-[4-(Cyclopropylmethoxy)phenyl]-2-(ethylsulfanyl)-3,5-dihydro-4H-pyrrolo[3,2-d]pyrimidin-4-one] |
| 99% | CS(=O)(=O)CCCSc1nc2cc[nH]c2c(=O)n1-c1ccc(OCC2CC2)cc1 [Example 154, 3-[4-(Cyclopropylmethoxy)phenyl]-2-{[3-(methylsulfonyl)propyl]sulfanyl}-3,5-dihydro-4H-pyrrolo[3,2-d]pyrimidin-4-one] |
| 99% | O=c1c2[nH]ccc2nc(SCCC2(O)CCOCC2)n1-c1ccc(OCC2CC2)cc1 [Example 155, 3-[4-(Cyclopropylmethoxy)phenyl]-2-{[2-(4-hydroxytetrahydro-2H-pyran-4-yl)ethyl]sulfanyl}-3,5-dihydro-4H-pyrrolo[3,2-d]pyrimidin-4-one] |
| 101% | O=c1c2[nH]ccc2nc(SCCCOC2CCOCC2)n1-c1ccc(OCC2CC2)cc1 [Example 157, 3-[4-(Cyclopropylmethoxy)phenyl]-2-{[3-(tetrahydro-2H-pyran-4-yloxy)propyl]sulfanyl}-3,5-dihydro-4H-pyrrolo[3,2-d]pyrimidin-4-one] |
| 99% | O=c1c2[nH]ccc2nc(SCCCOC2CCOCC2)n1-c1ccc(OCC(F)(F)F)cc1 [Example 158, 2-{[3-(Tetrahydro-2H-pyran-4-yloxy)propyl]sulfanyl}-3-[4-(2,2,2-trifluoroethoxy)phenyl]-3,5-dihydro-4H-pyrrolo[3,2-d]pyrimidin-4-one] |
| 99% | O=c1c2[nH]ccc2nc(SCCOC2CCOCC2)n1-c1ccc(OCC(F)(F)F)cc1 [Example 159, 2-{[2-(Tetrahydro-2H-pyran-4-yloxy)ethyl]sulfanyl}-3-[4-(2,2,2-trifluoroethoxy)phenyl]-3,5-dihydro-4H-pyrrolo[3,2-d]pyrimidin-4-one] |
| 103% | CCSc1nc2cc[nH]c2c(=O)n1-c1ccc(OCC2CC2)c(Cl)c1 [Example 162, 3-[3-Chloro-4-(cyclopropylmethoxy)phenyl]-2-(ethylsulfanyl)-3,5-dihydro-4H-pyrrolo[3,2-d]pyrimidin-4-one] |
| 99% | CCOCCOCCSc1nc2cc[nH]c2c(=O)n1-c1ccc(OCC2CC2)c(Cl)c1 [Example 163, 3-[3-Chloro-4-(cyclopropylmethoxy)phenyl]-2-{[2-(2-ethoxyethoxy)ethyl]sulfanyl}-3,5-dihydro-4H-pyrrolo[3,2-d]pyrimidin-4-one] |
| 101% | CC(C)S(=O)(=O)CCCSc1nc2cc[nH]c2c(=O)n1-c1ccc(OCC2CC2)cc1 [Example 164, 3-[4-(Cyclopropylmethoxy)phenyl]-2-({3-[(1-methylethyl)sulfonyl]propyl}sulfanyl)-3,5-dihydro-4H-pyrrolo[3,2-d]pyrimidin-4-one] |
| 99% | O=c1c2[nH]ccc2nc(SCCCS(=O)(=O)CC2CC2)n1-c1ccc(OCC(F)(F)F)cc1 [Example 165, 2-({3-[(Cyclopropylmethyl)sulfonyl]propyl}sulfanyl)-3-[4-(2,2,2-trifluoroethoxy)phenyl]-3,5-dihydro-4H-pyrrolo[3,2-d]pyrimidin-4-one] |
| 101% | O=c1c2[nH]ccc2nc(SCCCS(=O)(=O)CC2CC2)n1-c1ccc(OCC2CC2)cc1 [Example 166, 3-[4-(Cyclopropylmethoxy)phenyl]-2-({3-[(cyclopropylmethyl)sulfonyl]propyl}sulfanyl)-3,5-dihydro-4H-pyrrolo[3,2-d]pyrimidin-4-one] |
| 101% | N#CCCNC(=O)CCCSc1nc2c(C3CC3)c[nH]c2c(=O)n1-c1ccc(OCC(F)(F)F)cc1 [Example 170, N-(2-cyanoethyl)-4-({7-cyclopropyl-4-oxo-3-[4-(2,2,2-trifluoroethoxy)phenyl]-4,5-dihydro-3H-pyrrolo[3,2-d]pyrimidin-2-yl}sulfanyl)butanamide] |
| 98% | CCc1c[nH]c2c(=O)n(-c3ccc(OCC(F)(F)F)cc3)c(SCCCC(=O)NCCC#N)nc12 [Example 171, N-(2-cyanoethyl)-4-({7-ethyl-4-oxo-3-[4-(2,2,2-trifluoroethoxy)phenyl]-4,5-dihydro-3H-pyrrolo[3,2-d]pyrimidin-2-yl}sulfanyl)butanamide] |
| 99% | Cc1c[nH]c2c(=O)n(-c3ccc(OCC(F)(F)F)cc3)c(SCCCC(=O)NCCC#N)nc12 [Example 172, N-(2-cyanoethyl)-4-({7-methyl-4-oxo-3-[4-(2,2,2-trifluoroethoxy)phenyl]-4,5-dihydro-3H-pyrrolo[3,2-d]pyrimidin-2-yl}sulfanyl)butanamide] |
| 97% | CCOc1ccc(-n2c(SCC(=O)NCCC#N)nc3[nH]ccc3c2=O)cc1 [Example 173, N-(2-cyanoethyl)-2-{[3-(4-ethoxyphenyl)-4-oxo-4,7-dihydro-3H-pyrrolo[2,3-d]pyrimidin-2-yl]sulfanyl}acetamide] |
| 100% | CC(C)(C)COc1ccc(-n2c(SCCCC(=O)NCCC#N)nc3[nH]ccc3c2=O)cc1 [Example 174, N-(2-cyanoethyl)-4-({3-[4-(2,2-dimethylpropoxy)phenyl]-4-oxo-4,7-dihydro-3H-pyrrolo[2,3-d]pyrimidin-2-yl}sulfanyl)butanamide] |

| Compound | inhibition at 10 µM |
| --- | --- |
| CC(C)(C)CCOc1ccc(-n2c(SCCCC(=O)NCCC#N)nc3[nH]ccc3c2=O)cc1 [Example 176, N-(2-cyanoethyl)-4-({3-[4-(3,3-dimethylbutoxy)phenyl]-4-oxo-4,7-dihydro-3H-pyrrolo[2,3-d]pyrimidin-2-yl}sulfanyl)butanamide] | 98% |
